Results from paper PMC5727059, “Antagonistic effect of dopamine structural analogues on human GABAρ1 receptor” (Scientific Reports, 2017).
Entries after “also recorded” stand apart in the source; their conditions may differ. Like-named read-outs stand apart in the source and are kept apart here.

Legend:
[1] = molecular target: T1, human GABAρ1 (Homo sapiens, UniProt P24046); assay: Inhibition of GABA currents by co-application of 3 µM GABA and analogue, two-microelectrode voltage clamp in X. laevis oocytes; type: cell-based; conditions: for effect on the responses generated by 3 μM GABA: concentrations up to 20 mM, data not shown; for extent of inhibition of GABA currents at high concentrations: maximum inhibition compared with full inhibition (100%); for Emax: read-out: Maximal effect on GABA currents, % Inh;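 for all read-outs here: oocytes expressing human GABAρ1 from injected mRNA, recorded 1–5 days later, clamped at −60 mV, room temperature, compounds bath-applied at pH 7.4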
T1 construct: expressed in transfected cells; host or cells: Xenopus laevis oocytes injected with in vitro transcribed mRNA

[2] = molecular target: LGC-53 (Caenorhabditis elegans, UniProt H2KYN9); assay: cell-based; type: cell-based; conditions: for Emax: read-out: Maximal effect versus maximal response to DA, % current; for gating or modulation of LGC-53: high concentrations (up to 1 mM);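 for all read-outs here: LGC-53 expressed in frog oocytes, two-electrode voltage clamp at −60 mV, analogues bath-applied, full or partial agonism judged by maximal effect against DA applied before and after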
[3] = molecular target: T1, human GABAρ1; assay: Modulation of activated GABAρ1: analogue applied during the current plateau upon activation with 3 µM GABA, oocytes; type: cell-based; conditions: for Efficacy % to inhibit GABA responses: activated GABA channels (Fig. 5D empty bars), applied during 3 µM GABA perfusion
[4] = molecular target: T1, human GABAρ1; assay: Current-voltage ramp (−120 to +70 mV) of GABA currents in presence of the IC50 of each compound, oocytes; type: cell-based; conditions: 3 µM GABA, compound at its IC50; GABA alone as reference
Method: All these compounds are ionized at pH 7.4.
Supplementary Figure S2. I/V Curves A) Current−voltage relations for GABA currents modulated in presence of DA
analogues. B). Percentage of inhibition of DA analogues (for each compound the IC50s were tested) in the currents
Reverse potentials were: -35.25 ± 1.04 mV, -35.69 ±
reverse potential was -35.07 ± 0.90 mV.
(1 picture or pasted object on this page, not shown here)

[5] = molecular target: T1, human GABAρ1; parameters: method as in Ochoa de la Paz et al., 2012; conditions: Table 1, ref Ochoa de la Paz et al., 2012, cited from earlier work; for IC50: read-out: GABA ρ1 (Human) IC50, oocytes
[6] = molecular target: T1, human GABAρ1; assay: Competition assays: GABA concentration-response curves in presence of 3-MT, oocytes; type: cell-based
[7] = receptor activated with GABA 3 µM
[8] = Fig. 7C, maximal concentration tested, DA 300 µM

Sequence of LGC-53 (H2KYN9 entry or part of it): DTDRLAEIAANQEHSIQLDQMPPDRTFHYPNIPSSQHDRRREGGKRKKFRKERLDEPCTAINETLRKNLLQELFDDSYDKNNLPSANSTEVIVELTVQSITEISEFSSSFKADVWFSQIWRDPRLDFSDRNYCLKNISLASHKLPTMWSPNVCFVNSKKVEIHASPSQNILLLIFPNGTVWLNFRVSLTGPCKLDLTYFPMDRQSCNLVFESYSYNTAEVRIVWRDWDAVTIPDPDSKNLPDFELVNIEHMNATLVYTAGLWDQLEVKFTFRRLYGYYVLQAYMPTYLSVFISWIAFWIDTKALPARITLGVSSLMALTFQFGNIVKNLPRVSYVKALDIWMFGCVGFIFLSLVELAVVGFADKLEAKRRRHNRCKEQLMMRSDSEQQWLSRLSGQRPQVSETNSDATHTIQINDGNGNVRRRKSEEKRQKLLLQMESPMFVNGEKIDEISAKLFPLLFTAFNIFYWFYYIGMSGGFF
T1 sequence (P24046 22-479): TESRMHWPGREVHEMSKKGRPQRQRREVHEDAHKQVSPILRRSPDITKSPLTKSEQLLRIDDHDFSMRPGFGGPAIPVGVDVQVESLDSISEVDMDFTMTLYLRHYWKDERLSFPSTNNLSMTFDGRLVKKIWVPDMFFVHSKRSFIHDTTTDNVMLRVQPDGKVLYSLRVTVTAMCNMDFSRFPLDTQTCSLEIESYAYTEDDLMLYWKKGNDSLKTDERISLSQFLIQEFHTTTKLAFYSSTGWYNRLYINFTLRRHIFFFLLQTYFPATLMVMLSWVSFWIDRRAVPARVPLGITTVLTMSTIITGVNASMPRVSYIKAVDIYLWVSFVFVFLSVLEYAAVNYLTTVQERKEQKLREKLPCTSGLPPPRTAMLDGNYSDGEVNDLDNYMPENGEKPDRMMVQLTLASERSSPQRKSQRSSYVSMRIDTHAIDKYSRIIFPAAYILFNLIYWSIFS

With `NC[C@H](O)c1ccc(O)c(O)c1` [NAD, Noradrenaline] the “GABA ρ1 (Human) IC50 (mM)” value ([1]; Table 1, oocytes) was “N.E”, the “effect on the responses generated by 3 μM GABA” value [1] was “failed to elicit any effect” and the EC50 [2] was 0.137 ± 0.072 mM. For the same molecule, the “LGC-53 Agonist: Full or partial” value ([2]; Table 1) was “partial” and the Emax [2] was 61 ± 13%.

For `O=C(O)Cc1ccc(O)c(O)c1` [DOPAC, 3,4-Dihydroxyphenylacetic acid], the “GABA ρ1 (Human) Antagonist: Full or partial” value (from here on “GABA ρ1 (Human) Antagonist”) ([1]; Table 1) was “partial”, the IC50 ([1]; Table 1, oocytes) was 2250 ± 258 µM and the “extent of inhibition of GABA currents at high concentrations” value (“extent of inhibition of GABA currents” for short) [1] was “significantly different from the full inhibition”. The Emax [1] was 93.6 ± 2.41%, the “change in potency/efficacy between activated receptor and co-application protocols” value [3, 7] was “did not show differences in the efficacy or potency” and the “LGC-53 EC50 (mM)” value ([2]; Table 1) was “N.E”.

With `COc1cc(CCN)ccc1O` [3-MT, 3-Methoxytyramine] the “GABA ρ1 (Human) Antagonist” value ([1]; Table 1) was “full”, the “extent of inhibition of GABA currents” value [1] was “Full inhibition” and the IC50 ([1]; read-out: GABA ρ1 (Human) IC50, Table 1, oocytes) was 285 ± 3 µM. For the same molecule, the Emax [1] was 100 ± 2.17%, the “Efficacy % to inhibit GABA responses” value [3] was 51.65 ± 6.93% and the “decrease of potency on activated receptor versus co-application” value (“decrease of potency” below) [3, 7] was 2 fold. The “reversal potential of GABA currents” value [4] was -35.25 ± 1.04 mV, the “activity on LGC-53” value [2] was “inactive” and the “LGC-53 EC50 (mM)” value ([2]; Table 1) was “N.E”. The “gating or modulation of LGC-53” value [2] was “Neither GABA nor 3-MT gated the channel or showed an evident modulatory effect”.

In the case of `N[C@@H](Cc1ccc(O)c(O)c1)C(=O)O` [L-DOPA, L-3,4-dihydroxyphenylalanine], the “GABA ρ1 (Human) IC50 (mM)” value ([1]; Table 1, oocytes) is reported as “N.E” and the “LGC-53 EC50 (mM)” value ([2]; Table 1) is reported as “N.E”.

In the case of `COc1cc(CC(=O)O)ccc1O` [HVA, Homovanillic acid], the “GABA ρ1 (Human) Antagonist” value ([1]; Table 1) is reported as “partial”, the IC50 ([1]; Table 1, oocytes) is reported as 1970 ± 211 µM and the “extent of inhibition of GABA currents” value [1] is reported as “significantly different from the full inhibition”. For the same molecule, the Emax [1] was 86.5 ± 1.89%, the “change in potency/efficacy between activated receptor and co-application protocols” value [3, 7] was “did not show differences in the efficacy or potency” and the “LGC-53 EC50 (mM)” value ([2]; Table 1) was “N.E”.

With `NCCc1ccccc1` [β-PEA, 2-Phenylethylamine] the IC50 [1] was 1790 ± 104 µM, the “GABA ρ1 (Human) Antagonist” value ([1]; Table 1) was “full” and the Emax [1] was 97.3 ± 2.73%. For the same molecule, the “Efficacy % to inhibit GABA responses” value [3] was 63.62 ± 11.44%, the “decrease of potency” value [3, 7] was 2 fold and the EC50 [2] was 1.33 ± 0.433 mM. For the same molecule, the “agonist type on LGC-53” value [2] was “partial agonists”, the Emax [2, 8] was 48.5 ± 10.4% and the “LGC-53 Agonist: Full or partial” value ([2]; Table 1) was “partial”.

For `NCCc1ccc(O)cc1` [Tyr, Tyramine], the “GABA ρ1 (Human) Antagonist” value [5] is given as “full”, the IC50 [5] is given as 550 ± 12 µM and the “agonist type on LGC-53” value [2] is given as “partial agonists”. For the same molecule, the Emax [2, 8] was 64.7 ± 9.6%, the “LGC-53 Agonist: Full or partial” value ([2]; Table 1) was “partial” and the EC50 ([2]; Table 1, read-out: LGC-53 EC50) was 2.18 ± 0.482 mM.

For `NCCc1ccc(O)c(O)c1` [DA, Dopamine], the “currents generated by the compound alone in oocytes injected with human ρ1” value ([1]; DA up to 1 mM, no GABA) was “did not generate evident currents”, the “extent of inhibition of GABA currents” value [1] was “Full inhibition” and the Emax [1] was 94.3 ± 5.84%. For the same molecule, the “GABA ρ1 (Human) Antagonist” value [5] was “full”, the IC50 [5] was 210 ± 1.12 µM and the “Efficacy % to inhibit GABA responses” value [3] was 61.94 ± 6.66%. The “decrease of potency” value [3, 7] was “around 10 fold”, the “LGC-53 Agonist: Full or partial” value [2] was “full” and the EC50 ([2]; EC50 on LGC-53) was 0.00415 ± 0.0011 mM. It also gave an EC50 ([2]; LGC-53 EC50 (mM)) of 0.0042 ± 0.001 mM.

For `NCCCCO` [4-AM-1-OH, 4-Amino-1-butanol], the “GABA ρ1 (Human) Antagonist” value ([1]; Table 1) was “full”, the IC50 ([1]; Table 1, oocytes) was 3910 ± 544 µM and the Emax [1] was 98.3 ± 7.3%. The “Efficacy % to inhibit GABA responses” value [3] was 65.50 ± 4.77%, the “increase of potency on activated receptor versus co-application” value ([3]; receptor activated with GABA 3 µM, not statistically significant) was “about 25%” and the “LGC-53 EC50 (mM)” value ([2]; Table 1) was “N.E”.

For `CNC[C@H](O)c1ccc(O)c(O)c1` [AD, Adrenaline], the “GABA ρ1 (Human) IC50 (mM)” value ([1]; Table 1, oocytes) was “N.E”, the “effect on the responses generated by 3 μM GABA” value [1] was “failed to elicit any effect” and the “LGC-53 Agonist: Full or partial” value [2] was “partial”. For the same molecule, the “agonist type on LGC-53” value [2] was “partial agonists”, the EC50 ([2]; LGC-53 EC50 (mM)) was 3.8 ± 0.803 mM and the Emax [2] was 59.2 ± 9.4%.

For `NCCCC(=O)O` [GABA, γ-Aminobutyric acid], the “Hill number of GABA concentration-response curve” value (shortened to “Hill number”) ([6]; 3-MT at its IC25) was 1.38 ± 0.24, the “Hill number” value ([6]; 3-MT at its IC50) was 1.40 ± 0.27 and the “Hill number” value ([6]; 3-MT at its IC75) was 1.90 ± 0.36. The “Hill number” value ([6]; GABA alone) was 1.34 ± 0.37, the “reversal potential of GABA currents” value [4] was -35.07 ± 0.90 mV and the “activity on LGC-53” value [2] was “not modulated; also recorded: neither activated LGC-53 nor modulated the DA responses”. For the same molecule, the “gating or modulation of LGC-53” value [2] was “Neither GABA nor 3-MT gated the channel or showed an evident modulatory effect”.
